Patent publication US5462933A, “Modified bile acid conjugates, and their use as pharmaceuticals” (Hoechst Aktiengesellschaft, priority 1989, dated 1995)

Legend:
[1] = molecular target: T1, Na+-dependent bile acid transport system (Oryctolagus cuniculus, UniProt Q28727); assay: Inhibition of Na+-dependent [3H]taurocholate absorption into brush-border membrane vesicles of the ileum; format: biochemical, rabbit; details: for IC50: read-out: IC50
T1 construct: brush-border membrane vesicles from the ileum of rabbits; from tissue; host or cells: terminal ileum of male New Zealand rabbits, brush-border membrane vesicles
T1 sequence (Q28727 1-347): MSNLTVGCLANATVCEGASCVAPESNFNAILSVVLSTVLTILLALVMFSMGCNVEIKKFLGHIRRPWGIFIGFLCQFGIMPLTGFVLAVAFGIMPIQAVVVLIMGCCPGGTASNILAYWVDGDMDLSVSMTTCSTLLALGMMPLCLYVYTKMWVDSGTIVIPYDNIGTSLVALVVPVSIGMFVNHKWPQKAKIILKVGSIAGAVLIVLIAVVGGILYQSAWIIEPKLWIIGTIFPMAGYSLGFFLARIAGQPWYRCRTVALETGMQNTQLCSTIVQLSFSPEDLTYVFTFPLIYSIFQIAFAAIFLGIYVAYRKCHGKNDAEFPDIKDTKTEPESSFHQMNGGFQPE
Protocol: The preparation of brush-border membrane vesicles from the intestinal cells of the small intestine was carried out using the so-called Mg^2+ precipitation method. Male New Zealand rabbits (2-2.5 kg body weight) were sacrificed by intravenous injection of 0.5 ml of T-61^R. The small intestine was removed and rinsed with ice-cold physiological saline solution. The terminal 3/10 of the small intestine (measured in the oral-rectal direction, i.e. the terminal ileum, which contains the active Na^+ -dependent bile acid transport system) were used for preparation of the brush-border membrane vesicles. The intestines were frozen at -80° C. under nitrogen in plastic bags. The frozen intestines were thawed in a water bath at 30° C. in order to prepare the membrane vesicles. The mucosa was scraped off and suspended in 60 ml of ice-cold 12 mM trys/HCl buffer (pH 7.1)/300 mM mannitol, 5 mM EGTA/10 mg/l of phenylmethylsulfonyl fluoride/1 mg/l of soybean trypsin inhibitor (32 U/mg)/0.5 mg/l of bovine lung trypsin inhibitor (193 U/mg)/5 mg/l of bacitracin. After diluting to 300 ml with ice-cold distilled water, the suspension was homogenized with ice-cooling for 3 minutes at 75% of maximum power using an Ultraturrax (18 rod, IKA Werk Staufen, Federal Republic of Germany). After addition of 3 ml of 1M MgCl2 solution (final concentration 10 mM), the homogenate was allowed to stand at 0° C. for exactly 1 minute. As a result of addition of Mg^2+, the cell membranes aggregate and precipitate with the exception of the brush-border membranes. After centrifugation at 3,000×g (5,000 rpm, SS-34 rotor) for 15 minutes, the precipitate is discarded and the supernatant which contains the brush-border membranes is centrifuged at 26,700×g (15,000 rpm, SS-34 rotor) for 30 minutes. The supernatant was discarded, and the precipitate was rehomogenized in 60 ml of 12 mM tris/HCl buffer (pH 7.1)/60 mM mannitol, 5 mM EGTA using a Potter Elvejhem homogenizer (Braun Melsungen, 900 rpm, 10 strokes). After addition of 0.1 ml of 1M MgCl2 solution and an incubation time of 15 minutes at 0° C., the mixture was again centrifuged at 3,000×g for 15 minutes. The supernatant was then again centrifuged at […] (15,000 rpm, SS-34 rotor) for 30 minutes. The precipitate was taken up in 30 ml of 10 mM tris/hepes buffer (pH 7.4)/300 mM mannitol and homogeneously resuspended by 20 strokes in a Potter Elvejhem homogenizer at 1,000 rpm. After centrifugation at 48,000×g (20,000 rpm, SS-34 rotor) for 30 minutes, the precipitate was taken up in 0.5 to 2 ml of tris/hepes buffer (pH 7.4)/280 mM mannitol (final concentration 20 mg/ml) and resuspended with the aid of a tuberculin syringe using a 27 gauge needle. The vesicles were either used immediately after preparation for transport investigations or stored at -196° C. in liquid nitrogen in 4 mg portions.
The absorption of substrates into brush-border membrane vesicles was determined by means of the so-called membrane filtration technique. 10 μl of the vesicle suspension (100 μg of protein) were pipetted on the wall of a polystyrene incubation tube (11×70 mm) as a drop which contained the incubation medium together with the corresponding ligands (90 μl ). […] The incubation medium was filtered through a polyvinylidene fluoride membrane filter (SYHV LO 4NS, 0.45 μm, 4 mm .phi., Millipore, Eschborn, Federal Republic of Germany). The transport measurement was begun by mixing the vesicles with the incubation medium. […] After the desired incubation time (customarily 1 min), the transport was stopped by addition of 1 ml of ice-cold stop solution (10 mM tris/hepes, (pH 7.4)/150 mM KCl). The resulting mixture was immediately filtered off with suction in a vacuum of 25 to 35 mbar through a membrane filter made of cellulose nitrate (ME 25, 0.45 μm, 25 mm diameter, Schleicher & Schuell, Dassell, Federal Republic of Germany). The filter was subsequently washed with 5 ml of ice-cold Stop solution.

[2] = In vivo perfused liver: absorption from portal vein blood and excretion into the bile; design: species or system rat; details: after W (Chlorambucil) into mesenteric vein
Protocol: In order to investigate a selective absorption of bile acid derivatives into the liver and their hepatotropic action, the appropriate derivatives were injected as a bolus into a mesenteric vein of anesthetized rats and the excretion of these derivatives and the corresponding active compounds or active compound metabolites into the bile was analysed.
Male Sprague-Dawley rats (300-500 g bodyweight) had their food withdrawn and received water ad libitum. After tracheotomy, the abdomen was opened by median section under urethane anesthesia ([…] i.m. urethane 30%). The pylorus was ligated and the bile duct was cannulated by advancing a polyethylene tube (d=0.05 mm) up to the liver and the bile was drained. The volume of secretion was measured at 15 minute intervals. After a preliminary period of 60 minutes, the substances (0.5 ml of a 1 mM solution in 0.9% NaCl solution) were administered into a mesenteric vein in the course of 30 sec and the bile was collected at prestated time intervals (2, 4, 6, 8, 10, 15, 20, 30, 40, 50, 60, 70, 80, 90, 100, 110 and 120 min). The bile acid derivative was administered first, and the appropriate active compound was administered after a collection period of 2 hours. 120 min after administration of test substance, the bladder volume was measured and the urine was also collected. The bile and urine samples were stored on ice during the experiment and then deep-frozen.
Each 10 μl bile sample was applied to TLC plates (10×20 cm, silica gel 60 specific layer thickness 0.25 mm, No. 37581 Riedel de Haen, Seelze, Federal Republic of Germany) using Microcaps (Drummond, Broomall, USA) and the thin-layer plates were dried in the air for 20 min.
The plates were developed in the following mobile phases: Substance Mobile phase
The constituents of the mobile phases were bought from the usual manufacturers in the highest possible purity grade. After developing and drying the plates, the distribution of the active compounds and the bile acid derivatives, or their metabolites, was determined by densitometry (CD 50 densitometer, DESAGA; Heidelberg). Detection was carried out in reflection mode with linear sampling at the wavelengths 252 nm (chlorambucil/chlorambucil conjugate) or 260 nm (remaining substances).
In order to evaluate the chromatograms, the relative intensity of the bile acid derivatives, the active compounds or the active compound metabolites on a chromatogram was given in surface area units.

## CC(C)c1cc(Sc2ccc(F)cc2)cc(-c2ccc(F)cc2)c1OC[C@@H](O)C[C@@H](O)CC(=O)NCCCO[C@H]1CC[C@@]2(C)[C@@H](C1)C[C@@H](O)[C@@H]1[C@@H]2C[C@H](O)[C@]2(C)[C@@H]([C@H](C)CCC(=O)O)CC[C@@H]12 [Example 94]
[1]
  IC25: 4.5 µM
  IC75: 24 µM
  IC50: 13 µM

## CC(C)c1cc(-c2ccc(F)cc2)c(OC[C@@H](O)C[C@@H](O)CC(=O)NCCO[C@H]2CC[C@@]3(C)[C@@H](C2)C[C@@H](O)[C@@H]2[C@@H]3C[C@H](O)[C@]3(C)[C@@H]([C@H](C)CCC(=O)O)CC[C@@H]23)c(C(C)C)c1 [Example 81]
[1]
  IC25: 15 µM
  IC75: 64 µM
  IC50: 38 µM

## CC(C)c1cc(-c2ccc(F)cc2)c(OC[C@@H](O)C[C@@H](O)CC(=O)NCCO[C@H]2CC[C@@]3(C)[C@@H](C2)C[C@@H](O)[C@@H]2[C@@H]3C[C@H](O)[C@]3(C)[C@@H]([C@H](C)CCC(=O)NCC(=O)O)CC[C@@H]23)c(C(C)C)c1 [Example 101]
[1]
  IC25: 19 µM
  IC75: 68 µM
  IC50: 40 µM

## O=C(O)CCCc1ccc(N(CCCl)CCCl)cc1 [Chlorambucil, [4-(bis-N-(2'-chloroethyl)-aminophenyl)]-butyric acid, reference compound]
[2]; bile at 2 min
  Conc. of W or a metabolite of W in bile: 1012 surface area units
[2]; bile at 4 min
  Conc. of W or a metabolite of W in bile: 885 surface area units
[2]; bile at 6 min
  Conc. of W or a metabolite of W in bile: 1044 surface area units
[2]; bile at 8 min
  Conc. of W or a metabolite of W in bile: 1160 surface area units
[2]; bile at 10 min
  Conc. of W or a metabolite of W in bile: 810 surface area units
[2]; bile at 15 min
  Conc. of W or a metabolite of W in bile: 689 surface area units
[2]; bile at 20 min
  Conc. of W or a metabolite of W in bile: 1481 surface area units
[2]; bile at 30 min
  Conc. of W or a metabolite of W in bile: 704 surface area units
[2]; bile at 40 min
  Conc. of W or a metabolite of W in bile: 511 surface area units
[2]; bile at 60 min
  Conc. of W or a metabolite of W in bile: 620 surface area units
[2]; bile at 70 min
  Conc. of W or a metabolite of W in bile: 1769 surface area units
[2]; bile at 80 min
  Conc. of W or a metabolite of W in bile: 501 surface area units
[2]; bile at 90 min
  Conc. of W or a metabolite of W in bile: 813 surface area units
[2]; bile at 100 min
  Conc. of W or a metabolite of W in bile: 523 surface area units
[2]; bile at 110 min
  Conc. of W or a metabolite of W in bile: 604 surface area units
[2]; bile at 120 min
  Conc. of W or a metabolite of W in bile: 531 surface area units
